{Puro} = puromycin of the RNA
How the values were obtained:
ribosomes [1] = details: cited from earlier work; for binding to the ribosome: result in words
D50S = assay: X-ray crystallography of D50S-ligand complex crystals (co-crystallization or soaking); type: binding, D. radiodurans; details: result in words, from complex crystals and electron-density maps
Description: Growth of D50S crystals: D. radiodurans LRSs were isolated, and crystals of D50S belonging to the space-group […] were grown as described in Example 1, above. Co-crystallization of D50S with antibiotics was carried out in the presence of 0.8-3.5 mM of the antibiotics chloramphenicol, clindamycin, erythromycin, and roxithromycin. Co-crystallization of D50S with clarithromycin was achieved by soaking D50S crystals in solutions containing 0.01 mM of this antibiotic.
X-ray diffraction: Data were collected at 85 K from shock-frozen crystals with a bright SR beam at ID19 at APS/ANL, ID14/2 and 4 at ESRF/EMBL, and at BW6 at DESY. Data were recorded on MAR345, Quantum 4, or APS-CCD detectors and processed with HKL2000 (Otwinowski, Z. and Minor, W., 1997. Macromolecular Crystallography, Pt A 276, 307).
Placements and refinement: The 3.1 Å structure of D50S described in Example 1, above, was refined against the structure factor amplitudes of each of the antibiotic-D50S complexes, using rigid body refinement as implemented in CNS (Brunger, A. T. et al., 1998. Acta Crystallographica Section D-Biological Crystallography 54, 905). SigmaA-weighted difference maps were used for the initial manual placement of the antibiotics. Each of the D50S-antibiotic models was further refined using REFMAC software (Murshudov, G. N. et al., 1999. Acta Cryst section D55, 247). For the calculation of free R-factor a subset of reflections (10% of the data) was omitted from the refinement. The structure coordinates of the antibiotic-D50S complexes were submitted to the PDB under accession numbers 1JZX, 1JZY, 1JZZ, 1K00, and 1K01.
Crystallization: Crystals of the large ribosomal subunit of D. radiodurans (D50S) were generated as described in Example 1 above (Harms J. et al., 2001. Cell 107, 679-688; Schlüenzen et al., 2001. Nature 413, 814-821). […]
X-ray diffraction: Data were collected at 85 K from shock-frozen crystals using a synchrotron radiation beam at ID 19 at Argonne Photon Source/Argonne National Laboratory (APS/ANL) and ID14/2, ID14/4 at the European Synchrotron Radiation Facility/European Molecular Biology Laboratory (ESRF/EMBL). Data were recorded on Quantum 4 or APS-CCD detectors and processed with HKL2000 (Otwinowski, Z. and Minor, W., 1997. Macromolecular Crystallography Pt A. 276, 307) and the CCP4 suite (Bailey, S., 1994. Acta Cryst D. 50, 760).
Localization and refinement: The 3.1 Å structure of D50S (PDB accession code 1LNR) was refined against the structure factor amplitudes of each of the two D50S-antibiotic complexes, using rigid body refinement as implemented in CNS (Brunger, A. T. et al., 1998. Acta Crystallographica Section D-Biological Crystallography 54, 905-921). […] The positions of the antibiotics were readily determined from sigmaA-weighted difference maps. […]

Heliobacter pylori = Heliobacter pylori (U/U); cited from earlier work
Haemophilus influenzae = Haemophilus influenzae (A/C); cited from earlier work
E. coli = details: U/U at 23S rRNA positions C803DR/C1773DR; cited from earlier work
ribosomes [2] = details: cited from earlier work

Question: With `CC[C@H]1OC(=O)[C@H](C)C(=O)[C@H](C)[C@@H](O[C@@H]2O[C@H](C)C[C@H](N(C)C)[C@H]2O)[C@](C)(OC)C[C@@H](C)C(=O)[C@H](C)[C@@H](O)[C@]1(C)O` [RU56006] as the compound, how does the Kd (ribosomes [1]; compared with erythromycin) read?
Answer: same order of magnitude as that of erythromycin

Question: Which “binding to D50S” value (D50S) does the source give for `CC[C@H]1OC(=O)[C@H](C)[C@@H](O[C@H]2C[C@@](C)(OC)[C@@H](O)[C@H](C)O2)[C@H](C)[C@@H](O[C@@H]2O[C@H](C)C[C@H](N(C)C)[C@H]2O)[C@](C)(O)C[C@@H](C)CN(C)[C@H](C)[C@@H](O)[C@]1(C)O` [azithromycin, 9-deoxy-9A-methyl-9A-aza-9A-homoerythromycin] here?
Answer: high affinity

Question: Which “binding to the ribosome” value (ribosomes [1]) does the source give for `COc1ccc(C[C@H](N)C(=O)N[C@H]2[C@@H](O)[C@H](n3cnc4c(N(C)C)ncnc43)O[C@@H]2CO)cc1` [Puromycin] here?
Answer: binds weakly

Question: What does the source list for `CC[C@H]1OC(=O)[C@H](C)C(=O)[C@H](C)[C@@H](O[C@@H]2O[C@H](C)C[C@H](N(C)C)[C@H]2O)[C@](C)(OCC=Cc2cnc3ccccc3c2)C[C@@H](C)C(=O)[C@H](C)[C@H]2NC(=O)O[C@@]21C` [ABT-773]?
Answer: susceptibility to ABT-773 (Heliobacter pylori): equally susceptible; binding to D50S (D50S): high affinity; susceptibility to ABT-773 (Haemophilus influenzae): equally susceptible; susceptibility to ABT-773 (E. coli): equally susceptible

Question: With “ACCP: puromycin-coupled RNA molecule having the sequence 5′-ACC-Puro; substrate analog mimicking the CCA 3′ end of the tRNA acceptor stem (RNA, 3' {Puro}, backbone not given here)” as the compound, how does the “binding to D50S” value (D50S) read?
Answer: bind well

Question: What does the source list for `CSC[S@+]([O-])C[C@H](CO)NC(=O)/C=C/c1c(C)[nH]c(=O)[nH]c1=O` [sparsomycin]?
Answer: binding to the ribosome (ribosomes [1]): weak binding; binding to D50S (D50S): almost quantitative binding

Question: Which “length of peptides produced by erythromycin-bound ribosomes” value (ribosomes [2]) does the source give for `CC[C@H]1OC(=O)[C@H](C)[C@@H](O[C@H]2C[C@@](C)(OC)[C@@H](O)[C@H](C)O2)[C@H](C)[C@@H](O[C@@H]2O[C@H](C)C[C@H](N(C)C)[C@H]2O)[C@](C)(O)C[C@@H](C)C(=O)[C@H](C)[C@@H](O)[C@]1(C)O` [erythromycin] here?
Answer: up to 8 residues

Reference: patent US20040265984A1, “Methods of growing crystals of free, antibiotic-complexed, and substrate-complexed large ribosomal subunits, and methods of rationally designing or identifying antibiotics using structure coordinate data derived from such crystals” (priority 2001, published 2004)
